Assay results: patent US20160256433A1, “Formulations Containing Amorphous Dapagliflozin” (SANDOZ AG, priority 2013, published 2016)
In brackets after ≈: the same amount, converted by molar mass. Read-outs that look alike come from different tables or passages of the source.

Columns and labels:
[1] = for pH of suspension after 24 hours of testing: 37° C.
physchem = conditions: for solubility at 24 h: thermodynamic from solid
[2] = for water absorbed: at 80% relative air humidity (RH)
[3] = medium of pH 1.2, 37 °C, pH 1.2, simulated gastric fluid
[4] = medium of pH 6.8, 37 °C, pH 6.8, aqueous buffer

Row | Structure (SMILES) | pH of suspension after 24 hours of testing ([1]; medium pH 1.2) | pH of suspension after 24 hours of testing ([1]; medium pH 6.8) | pH of suspension after 24 hours of testing ([1]; medium water) | solubility at 24 h (physchem; [3]) | solubility at 24 h (physchem; [4]) | solubility at 24 h (physchem; water, 37 °C) | water absorbed [2] | further results
1 | CCOc1ccc(Cc2cc([C@@H]3O[C@H](CO)[C@@H](O)[C@H](O)[C@H]3O)ccc2Cl)cc1 | 1.3 | 6.8 | 3.2 | 1700 µg/mL (≈ 4160 µM) | 1700 µg/mL (≈ 4160 µM) | 1800 µg/mL (≈ 4400 µM) | around 0.8% | –
2 | CCOc1ccc(Cc2cc([C@@H]3OC(CO)[C@@H](O)C(O)C3O)ccc2Cl)cc1 (stereo partly drawn) [amorphous dapagliflozine, (2S,3R,4R,5S,6R)-2-[4-chloro-3-(4-ethoxybenzyl)phenyl]-6-(hydroxymethyl)tetrahydro-2H-pyran-3,4,5-triole] | 1.2 | 6.7 | 7.4 | 1200 µg/mL (≈ 2930 µM) | 1200 µg/mL (≈ 2930 µM) | 1200 µg/mL (≈ 2930 µM) | around 6% | Desciptive term (solubility) ([1]; medium pH 1.2): Slightly soluble; Desciptive term (solubility) ([1]; medium pH 3.0): Slightly soluble; pH of suspension after 24 hours of testing ([1]; medium pH 3.0): 2.9; Desciptive term (solubility) ([1]; medium pH 4.5): Slightly soluble; pH of suspension after 24 hours of testing ([1]; medium pH 4.5): 4.5; Desciptive term (solubility) ([1]; medium pH 6.8): Slightly soluble; Desciptive term (solubility) ([1]; medium pH 7.4): Very slightly soluble; pH of suspension after 24 hours of testing ([1]; medium pH 7.4): 7.2; Desciptive term (solubility) ([1]; medium water): Slightly soluble; solubility at 24 h (physchem; medium of pH 3.0, 37 °C, pH 3, aqueous buffer): 1100 µg/mL (≈ 2690 µM); solubility at 24 h (physchem; medium of pH 4.5, 37 °C, pH 4.5, aqueous buffer): 1200 µg/mL (≈ 2930 µM); solubility at 24 h (physchem; medium of pH 7.4, 37 °C, pH 7.4, aqueous buffer): 700 µg/mL (≈ 1710 µM); solubility (physchem; water): ~1000 µg/mL (≈ 2450 µM); water irreversibly absorbed ([2]; during the first sorption/desorption cycle): around 3%
